{"source": "patent US20210169690A1", "about": "“Self-Retaining Implantable Drug Delivery Device” (GoldenBiotech, LLC, priority 2019, published 2021)", "format_in_all_cases": "physicochemical", "key": {"[1]": {"assay": "Visual examination of physical appearance and mixing of drug-loaded silicone polymer matrix test samples", "description": "To test the loading capacity of a silicone elastomer polymer matrix for a prostaglandin analogue, polymer matrix with different amounts and types of a prostaglandin analogue were made and the physical and mechanical properties of the resulting polymerized drug-loaded matrix were characterized (Tables 1-3). These polymer matrix test samples were made by mixing together a prostaglandin analogue, a liquid cyclic vinyl siloxane elastomer, a crosslinker, and a catalyst using a high-speed mixer and then heated the capped container at 70° C. for 24 hours to cure the mixture. A filler, such as a fumed silica, was also used to provide sufficient mechanical strength to the polymerized matrix. In addition, an inhibitor was used to slow the crosslinking reaction to a workable rate. The resulting thin-disc-shaped drug-loaded polymer matrix was allowed to cool to room temperature and then placed in 4° C. for 24 hours to increase stiffness of the material. The physical appearance of each drug-loaded polymer matrix test sample was examined visually and its mechanical properties analyzed using a durometer."}, "[2]": {"assay": "Modified Higuchi plot (2A versus Q^2/T)", "method": "Travoprost and Latanoprost are oily liquids at room temperature whereas Bimatoprost is a solid at room temperature. To determine whether the liquid versus solid phase of these drugs affects their release from the silicone polymer matrix, data was analyzed using an alternative plot based on the Higuchi equation where twice the drug loading value (2A) is plotted on the […] and the average slope of the plot of cumulative drug released squared versus time in hours (Q^2/T) is plotted on the […]."}, "[3]": {"assay": "Korsmeyer-Peppas analysis of drug release data", "details": "for Average n Values, Korsmeyer-Peppas Analysis, Mean: Mean over drug loadings", "method": "To confirm the results obtained based on the Higuchi equation analysis, the data above was also analyzed using the Korsmeyer-Peppas plot, which evaluates the mechanism of drug release by plotting the log of percent drug released over the log time in hours. If n equals 0.45, then Fickian diffusion is indicated for a cylinder (0.42 for cylinder of low aspect ratio). […] As exemplified FIG. 11, data is plotted as the log of cumulative percent drug released on the y-axis and the log time in hours on the x-axis."}, "[4]": {"assay": "Higuchi equation analysis of drug release data", "method": "In order to ascertain whether the mechanism of drug release was based on diffusion, data obtained from various coated silicone polymer matrices were analyzed using the Higuchi equation. This analysis determined the linearity between the cumulative amount of drug released and the square root of time (SQRT). […] As exemplified FIG. 10, data is plotted as the square root of time taken on the x-axis and the cumulative percentage of drug release on the y-axis."}, "[5]": {"assay": "Chemical stability of prostaglandin analogues in PBS, RPHPLC", "details": "PBS at pH 4, 7 and 10; 4° C., 33° C. and 50° C.", "method": "The chemical stability of prostaglandin analogues was also examined. In these experiments, a prostaglandin analogue was incubated in phospho-buffered saline (PBS) at pH 4, 7 and 10 and at 4° C., 33° C. and 50° C. representing long term storage, eye temperature and accelerate temperature conditions respectively. Analyses were performed by RPHPLC as described in Example 2, noting any hydrolysis products formed. […] This stability is most likely due to the amide linkage in Bimatoprost which is much more hydrolytically stable than the ester linkage in Latanoprost and Travoprost."}, "[6]": {"assay": "In vitro drug release from silicone polymer matrix test samples in PBS pH 7.4 at 37° C., RPHPLC", "details": "for Daily Release Rate: 25% Latanoprost matrix plug, PTFE Thread Seal Tape coat, two 18G depot channels", "method": "To test the controlled release properties of the disclosed drug-loaded silicone polymer matrices, the effects of a coating were examined. In these experiments, test samples were made as described in Example 1 to produce thin-disc-shaped drug-loaded polymer matrix. From this material, test samples were prepared by 1) cutting out rectangular polygons of about 3 mm length, about 1 mm width and about 1 mm height were cut from polymerized drug-loaded material; or 2) cutting out cylindrical plugs of about 3 mm length and having a diameter of about 0.5 mm to about 1 mm. The weight of the test samples were in the range about 0.1 mg to about 4 mg.\nCertain of these cut test samples were then coated using one of three procedures. Cut test samples were coated with a polymer like poly(p-xylylene) (PARYLENE) to a thickness of about 0.10 μm to about 0.95 μm using a vapor phase deposition procedure. Similarly, cut test samples were coated a metal like titanium to a thickness of about 0.10 μm to about 0.95 μm using a vapor phase deposition procedure. Alternatively, cut test samples were physically wrapped with a tape like polytetrafluoroethylene tape and sealed using cyanoacrylate adhesive.\nThe presence of opening in a coated test sample was also examined. In these experiments, coated test samples were punctured to produce opening through the coating layer. From one to four opening were made using the tip of an 18G, 23G, 27G or 31G needle. Two types of opening were produced 1) surface pores which created openings only through the coating layer but left the polymer matrix intact; and 2) depot channels which created a tunnel through the entire coated test sample from one end to the other end.\nTo examine the drug release properties of a test sample, each sample was placed in 2 mL Eppendorf tube containing 1.5 mL of Phosphate Buffered Saline, pH 7.4 (PBS). These tubes were slowly rocked at 37° C. in an incubator. At given time points the PBS was completely removed from the tube and refilled with fresh PBS. An aliquot of the removed PBS was then analyzed by reversed phase HPLC (RPHPLC) to determine the amount of drug released from the test sample during the incubation period. In these experiments, a 10 μL injection of the test sample aliquot was run on an Agilent 1260 Infinity in a reverse phase isocratic mode using UV detection at 210 nm. The column was a Hypersil GOLD Phenyl column, (Dim. (mm) 250×4.6) and the mobile phase was a 1:1 mixture of acetonitrile to aqueous buffer (comprising HPLC grade water mixed with 5 mM ammonium acetate and 0.02% formic acid). The flow rate was 1.2 mL/min and column temperature was 22° C. Peak detection and quantitation was determined by establishing a calibration curve using known amounts of each drug tested and the amount of drug present in the test sample aliquot interpolated from this calibration curve using ChemStation software."}}}
{"compound": "CCNC(=O)CCC/C=C\\C[C@@H]1[C@@H](/C=C/[C@@H](O)CCc2ccccc2)[C@H](O)C[C@@H]1O", "note": "[Bimatoprost]", "values": [{"measurement": "mixing in the liquid siloxane elastomer", "setting": "[1]; 15% or 20% Bimatoprost test samples", "value": "difficult to mix in the liquid siloxane elastomer"}, {"measurement": "physical examination of test sample", "setting": "[1]; 20% Bimatoprost test sample", "value": "brittle and contained clumps of unincorporated components from the mixture"}, {"measurement": "average slope of cumulative drug released squared versus time in hours (Q^2/T)", "setting": "[2]; Loading (A %) 1.0", "value": "0.204 ± 0.035"}, {"measurement": "average slope of cumulative drug released squared versus time in hours (Q^2/T)", "setting": "[2]; Loading (A %) 2.5", "value": "0.387 ± 0.009"}, {"measurement": "average slope of cumulative drug released squared versus time in hours (Q^2/T)", "setting": "[2]; Loading (A %) 5.0", "value": "1.680 ± 0.232"}, {"measurement": "average slope of cumulative drug released squared versus time in hours (Q^2/T)", "setting": "[2]; Loading (A %) 10", "value": "2.327 ± 0.252"}, {"measurement": "relationship of Q^2/T to 2A in modified Higuchi plot", "setting": "[2]; Table 10, FIG. 12 and FIG. 13", "value": "linear relationship"}, {"measurement": "Average n Values, Korsmeyer-Peppas Analysis", "setting": "[3]; Drug Loading 1%", "value": "0.326±"}, {"measurement": "Average n Values, Korsmeyer-Peppas Analysis", "setting": "[3]; Drug Loading 2.5%", "value": "0.372±"}, {"measurement": "Average n Values, Korsmeyer-Peppas Analysis", "setting": "[3]; Drug Loading 5%", "value": "0.411±"}, {"measurement": "Average n Values, Korsmeyer-Peppas Analysis", "setting": "[3]; Drug Loading 10%", "value": "0.377±"}, {"measurement": "Average n Values, Korsmeyer-Peppas Analysis", "setting": "[3]; Drug Loading 15%", "value": "0.380±"}, {"measurement": "Average n Values, Korsmeyer-Peppas Analysis", "setting": "[3]; Drug Loading 20%", "value": "0.601±"}, {"measurement": "Average n Values, Korsmeyer-Peppas Analysis, Mean", "setting": "[3]", "value": "0.37 ± 0.08"}, {"measurement": "Average Linear Regression r^2 Value, Higuchi Equation Analysis", "setting": "[4]; Drug Loading 1%", "value": 0.992}, {"measurement": "Average Linear Regression r^2 Value, Higuchi Equation Analysis", "setting": "[4]; Drug Loading 2.5%", "value": 0.995}, {"measurement": "Average Linear Regression r^2 Value, Higuchi Equation Analysis", "setting": "[4]; Drug Loading 5%", "value": 0.997}, {"measurement": "Average Linear Regression r^2 Value, Higuchi Equation Analysis", "setting": "[4]; Drug Loading 10%", "value": 0.988}, {"measurement": "Average Linear Regression r^2 Value, Higuchi Equation Analysis", "setting": "[4]; Drug Loading 15%", "value": 0.994}, {"measurement": "Average Linear Regression r^2 Value, Higuchi Equation Analysis", "setting": "[4]; Drug Loading 20%", "value": 0.972}, {"measurement": "chemical stability (hydrolysis products)", "setting": "[5]", "value": "excellent stability with Bimatoprost being the most stable"}]}
{"compound": "CC(C)OC(=O)CCC/C=C\\C[C@@H]1[C@@H](CC[C@@H](O)CCc2ccccc2)[C@H](O)C[C@@H]1O", "note": "[Latanoprost]", "values": [{"measurement": "physical examination of test sample", "setting": "[1]; 25% Latanoprost test sample", "value": "exhibited more elasticity but had a surface with tacky attributes and a consistency that was not fully homogeneous"}, {"measurement": "Average n Values, Korsmeyer-Peppas Analysis", "setting": "[3]; Drug Loading 5%", "value": "0.504±"}, {"measurement": "Average n Values, Korsmeyer-Peppas Analysis", "setting": "[3]; Drug Loading 10%", "value": "0.501±"}, {"measurement": "Average n Values, Korsmeyer-Peppas Analysis", "setting": "[3]; Drug Loading 15%", "value": "0.712±"}, {"measurement": "Average n Values, Korsmeyer-Peppas Analysis", "setting": "[3]; Drug Loading 20%", "value": "1.200±"}, {"measurement": "Average n Values, Korsmeyer-Peppas Analysis, Mean", "setting": "[3]", "value": "0.57 ± 0.16"}, {"measurement": "Daily Release Rate", "setting": "[6]; day 7", "value": 3.86, "unit": "µg/day"}, {"measurement": "Daily Release Rate", "setting": "[6]; day 19", "value": 5.68, "unit": "µg/day"}, {"measurement": "Daily Release Rate", "setting": "[6]; day 29", "value": 3.60, "unit": "µg/day"}, {"measurement": "Daily Release Rate", "setting": "[6]; day 64", "value": 5.11, "unit": "µg/day"}, {"measurement": "Daily Release Rate", "setting": "[6]; day 71", "value": 8.13, "unit": "µg/day"}, {"measurement": "Daily Release Rate", "setting": "[6]; day 106", "value": 2.82, "unit": "µg/day"}, {"measurement": "Daily Release Rate", "setting": "[6]; day 122", "value": 1.18, "unit": "µg/day"}, {"measurement": "period of near zero order release", "setting": "[6]; coated test sample, 25% Latanoprost, four surface pores", "value": 42, "unit": "days"}, {"measurement": "total amount of drug released", "setting": "[6]; coated test sample, 25% Latanoprost, four surface pores, as of 140 days", "value": 2.2, "unit": "%"}, {"measurement": "release profile", "setting": "[6]; uncoated silicone polymer matrix loaded with 10% Latanoprost, FIG. 5", "value": "rapid release of the drug over the first five days, which then tapers off and by day 12 shows no further significant release of Latanoprost"}, {"measurement": "Average Linear Regression r^2 Value, Higuchi Equation Analysis", "setting": "[4]; Drug Loading 5%", "value": 0.964}, {"measurement": "Average Linear Regression r^2 Value, Higuchi Equation Analysis", "setting": "[4]; Drug Loading 10%", "value": 0.983}, {"measurement": "Average Linear Regression r^2 Value, Higuchi Equation Analysis", "setting": "[4]; Drug Loading 15%", "value": 0.990}, {"measurement": "Average Linear Regression r^2 Value, Higuchi Equation Analysis", "setting": "[4]; Drug Loading 20%", "value": 0.990}]}
